Assay results taken from patent US9149038B2, “4-amino-6-(heterocyclic)picolinates and 6-amino-2-(heterocyclic)pyrimidine-4-carboxylates and their use as herbicides” (Dow AgroSciences LLC, priority 2013, dated 2015).
Where two headings read alike, the source gives them in different places.

Test system: Wheat and Barley and weed species
Assay: Post-Emergent Test III: postemergent herbicidal activity in wheat and barley, visual rating after 21 d and probit GR20/GR50/GR80/GR90 (Tables 9-13)
Assay type: in vivo
Settings: for GR50 ALOMY / GR50 APESV / GR50 KCHSC / GR50 LOLSS / GR50 SETVI: growth reduction of 50%; for GR50 ALOMY / GR80 ALOMY / GR90 ALOMY / GR50 APESV / GR80 APESV / GR90 APESV / GR20 HORVS / GR50 KCHSC / GR80 KCHSC / GR90 KCHSC / GR50 LOLSS / GR80 LOLSS / GR90 LOLSS / GR50 SETVI / GR80 SETVI / GR90 SETVI / GR20 TRZAS: probit analysis; for GR80 ALOMY / GR80 APESV / GR80 KCHSC / GR80 LOLSS / GR80 SETVI: growth reduction of 80%; for GR90 ALOMY / GR90 APESV / GR90 KCHSC / GR90 LOLSS / GR90 SETVI: growth reduction of 90%; for GR20 HORVS / GR20 TRZAS: growth reduction of 20%; for pest or weed control at 17.5 g/ha / pest or weed control at 35 g/ha / pest or weed control at 70 g/ha / pest or weed control at 140 g/ha: post-emergence, 504 h; for Visual Growth Reduction (%) 21 Days After Application KCHSC / GR50 KCHSC / GR80 KCHSC / GR90 KCHSC: KCHSC kochia (Kochia scoparia)
How it was run: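 Greenhouse plants (~18/17 °C, 14 h photoperiod) at second–third true leaf stage sprayed at 187 L/ha with a high rate and ½× to 1/16× serial dilutions. Visual injury 0–100% versus solvent-blank controls scored at 21 d; GR20, GR50, GR80 and GR90 derived by probit analysis across rates.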

[1] = ALOMY black-grass (Alopecurus myosuroides)
[2] = APESV bentgrass (Apera spica-venti)
[3] = Hordeum vulgare, HORVS barley, spring (crop), 35 g ai/ha, read-out: Visual Growth Reduction (%) 21 Days After Application HORVS
[4] = Hordeum vulgare, HORVS barley, spring (crop), 70 g ai/ha, read-out: Visual Growth Reduction (%) 21 Days After Application HORVS
[5] = SETVI green foxtail (Setaria viridis)
[6] = Triticum aestivum, TRZAS wheat, spring (crop), 35 g ai/ha, read-out: Visual Growth Reduction (%) 21 Days After Application TRZAS
[7] = Triticum aestivum, TRZAS wheat, spring (crop), 70 g ai/ha, read-out: Visual Growth Reduction (%) 21 Days After Application TRZAS
[8] = ALOMY black-grass (Alopecurus myosuroides), 35 g ai/ha, read-out: Visual Growth Reduction (%) 21 Days After Application ALOMY
[9] = ALOMY black-grass (Alopecurus myosuroides), 70 g ai/ha, read-out: Visual Growth Reduction (%) 21 Days After Application ALOMY
[10] = APESV bentgrass (Apera spica-venti), 35 g ai/ha, read-out: Visual Growth Reduction (%) 21 Days After Application APESV
[11] = APESV bentgrass (Apera spica-venti), 70 g ai/ha, read-out: Visual Growth Reduction (%) 21 Days After Application APESV
[12] = LOLSS ryegrass, 35 g ai/ha, read-out: Visual Growth Reduction (%) 21 Days After Application LOLSS
[13] = LOLSS ryegrass, 70 g ai/ha, read-out: Visual Growth Reduction (%) 21 Days After Application LOLSS
[14] = SETVI green foxtail (Setaria viridis), 35 g ai/ha, read-out: Visual Growth Reduction (%) 21 Days After Application SETVI
[15] = SETVI green foxtail (Setaria viridis), 70 g ai/ha, read-out: Visual Growth Reduction (%) 21 Days After Application SETVI
[16] = Hordeum vulgare, HORVS barley, spring (crop), 140 g ai/ha, read-out: Visual Growth Reduction (%) 21 Days After Application HORVS
[17] = Triticum aestivum, TRZAS wheat, spring (crop), 140 g ai/ha, read-out: Visual Growth Reduction (%) 21 Days After Application TRZAS
[18] = ALOMY black-grass (Alopecurus myosuroides), 140 g ai/ha, read-out: Visual Growth Reduction (%) 21 Days After Application ALOMY
[19] = APESV bentgrass (Apera spica-venti), 140 g ai/ha, read-out: Visual Growth Reduction (%) 21 Days After Application APESV
[20] = LOLSS ryegrass, 140 g ai/ha, read-out: Visual Growth Reduction (%) 21 Days After Application LOLSS
[21] = SETVI green foxtail (Setaria viridis), 140 g ai/ha, read-out: Visual Growth Reduction (%) 21 Days After Application SETVI

Row | SMILES | GR50 ALOMY [1] [g ai/ha] | GR80 ALOMY [1] [g ai/ha] | GR90 ALOMY [1] [g ai/ha] | GR50 APESV [2] [g ai/ha] | GR80 APESV [2] [g ai/ha] | GR90 APESV [2] [g ai/ha] | GR20 HORVS (HORVS barley, spring (crop)) [g ai/ha] | pest or weed control at 35 g/ha [3] [%] | pest or weed control at 70 g/ha [4] [%] | Visual Growth Reduction (%) 21 Days After Application KCHSC (35 g ai/ha) | Visual Growth Reduction (%) 21 Days After Application KCHSC (70 g ai/ha) | GR50 KCHSC [g ai/ha] | GR80 KCHSC [g ai/ha] | GR90 KCHSC [g ai/ha] | GR50 LOLSS (LOLSS ryegrass) [g ai/ha] | GR80 LOLSS (LOLSS ryegrass) [g ai/ha] | GR90 LOLSS (LOLSS ryegrass) [g ai/ha] | GR50 SETVI [5] [g ai/ha] | GR80 SETVI [5] [g ai/ha] | GR90 SETVI [5] [g ai/ha] | further results
1 | COC(=O)c1nc(-c2ccc3c(c2)OC(C)(C)O3)c(F)c(N)c1Cl [Compound 8] | >70 | >70 | >70 | 22 | 36 | 46 | 7 | 60 to 74 | 60 to 74 | D (60-74) | D (60-74) | 21 | >70 | >70 | >70 | >70 | >70 | 11 | 72 | >70 | pest or weed control at 17.5 g/ha (Hordeum vulgare, HORVS barley, spring (crop), 17.5 g ai/ha, read-out: Visual Growth Reduction (%) 21 Days After Application HORVS): 30 to 44%; Visual Growth Reduction (%) 21 Days After Application KCHSC (17.5 g ai/ha): E (45-59); GR20 TRZAS (TRZAS wheat, spring (crop)): 6 g ai/ha; pest or weed control at 17.5 g/ha (Triticum aestivum, TRZAS wheat, spring (crop), 17.5 g ai/ha, read-out: Visual Growth Reduction (%) 21 Days After Application TRZAS): 30 to 44%; pest or weed control at 35 g/ha [6]: 60 to 74%; pest or weed control at 70 g/ha [7]: 60 to 74%; pest or weed control at 17.5 g/ha (ALOMY black-grass (Alopecurus myosuroides), 17.5 g ai/ha, read-out: Visual Growth Reduction (%) 21 Days After Application ALOMY): 0 to 29%; pest or weed control at 35 g/ha [8]: 30 to 44%; pest or weed control at 70 g/ha [9]: 45 to 59%; pest or weed control at 17.5 g/ha (APESV bentgrass (Apera spica-venti), 17.5 g ai/ha, read-out: Visual Growth Reduction (%) 21 Days After Application APESV): 0 to 29%; pest or weed control at 35 g/ha [10]: 85 to 94%; pest or weed control at 70 g/ha [11]: 85 to 94%; pest or weed control at 17.5 g/ha (LOLSS ryegrass, 17.5 g ai/ha, read-out: Visual Growth Reduction (%) 21 Days After Application LOLSS): 0 to 29%; pest or weed control at 35 g/ha [12]: 0 to 29%; pest or weed control at 70 g/ha [13]: 30 to 44%; pest or weed control at 17.5 g/ha (SETVI green foxtail (Setaria viridis), 17.5 g ai/ha, read-out: Visual Growth Reduction (%) 21 Days After Application SETVI): 60 to 74%; pest or weed control at 35 g/ha [14]: 75 to 84%; pest or weed control at 70 g/ha [15]: 75 to 84%
2 | Nc1cc(-c2cc3c(cc2F)OC(F)(F)O3)nc(C(=O)O)c1Cl [Compound 42] | 11 | 25 | 40 | 22 | 81 | >140 | 0.50 | 75 to 84 | 85 to 94 | E (45-59) | E (45-59) | 54 | >140 | >140 | 44 | >140 | >140 | 10 | 46 | >140 | pest or weed control at 140 g/ha [16]: 85 to 94%; Visual Growth Reduction (%) 21 Days After Application KCHSC (140 g ai/ha): D (60-74); GR20 TRZAS (TRZAS wheat, spring (crop)): 0.20 g ai/ha; pest or weed control at 35 g/ha [6]: 75 to 84%; pest or weed control at 70 g/ha [7]: 75 to 84%; pest or weed control at 140 g/ha [17]: 85 to 94%; pest or weed control at 35 g/ha [8]: 85 to 94%; pest or weed control at 70 g/ha [9]: 95 to 100%; pest or weed control at 140 g/ha [18]: 95 to 100%; pest or weed control at 35 g/ha [10]: 60 to 74%; pest or weed control at 70 g/ha [11]: 75 to 84%; pest or weed control at 140 g/ha [19]: 85 to 94%; pest or weed control at 35 g/ha [12]: 45 to 59%; pest or weed control at 70 g/ha [13]: 60 to 74%; pest or weed control at 140 g/ha [20]: 60 to 74%; pest or weed control at 35 g/ha [14]: 75 to 84%; pest or weed control at 70 g/ha [15]: 85 to 94%; pest or weed control at 140 g/ha [21]: 95 to 100%
3 | COC(=O)c1nc(-c2ccc3c(c2F)OC(F)(F)O3)c(F)c(N)c1Cl [Compound 10] | 52 | 109 | >140 | 65 | 106 | 138 | 11 | 60 to 74 | 75 to 84 | G (0-29) | D (60-74) | 78 | 117 | >140 | 93 | >140 | >140 | 36 | 63 | 85 | pest or weed control at 140 g/ha [16]: 85 to 94%; Visual Growth Reduction (%) 21 Days After Application KCHSC (140 g ai/ha): C (75-84); GR20 TRZAS (TRZAS wheat, spring (crop)): 4 g ai/ha; pest or weed control at 35 g/ha [6]: 60 to 74%; pest or weed control at 70 g/ha [7]: 85 to 94%; pest or weed control at 140 g/ha [17]: 85 to 94%; pest or weed control at 35 g/ha [8]: 30 to 44%; pest or weed control at 70 g/ha [9]: 45 to 59%; pest or weed control at 140 g/ha [18]: 85 to 94%; pest or weed control at 35 g/ha [10]: 0 to 29%; pest or weed control at 70 g/ha [11]: 45 to 59%; pest or weed control at 140 g/ha [19]: 85 to 94%; pest or weed control at 35 g/ha [12]: 0 to 29%; pest or weed control at 70 g/ha [13]: 30 to 44%; pest or weed control at 140 g/ha [20]: 60 to 74%; pest or weed control at 35 g/ha [14]: 60 to 74%; pest or weed control at 70 g/ha [15]: 75 to 84%; pest or weed control at 140 g/ha [21]: 95 to 100%
